# PubChem BioAssay (NCI)
#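 Growth conditions: 96-well plates. Treatment: test compound, 48 hours, 5 concentrations. Analysis: linear interpolation between bracketing concentrations; unreached endpoints set to highest concentration. The concentration for full growth arrest is given as TGI.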
# Tests used:
# Test in all cases: NCI-60 cell line screen, 48 h
# 786-0 renal = system: 786-0 renal
# A498 renal = system: A498 renal
# A549 NSCLC = system: A549 NSCLC
# ACHN renal = system: ACHN renal
# BT-549 breast = system: BT-549 breast
# CAKI-1 renal = system: CAKI-1 renal
# CCRF-CEM leukemia = system: CCRF-CEM leukemia
# COLO 205 colon = system: COLO 205 colon
# DU-145 prostate = system: DU-145 prostate
# EKVX NSCLC = system: EKVX NSCLC
# HCC-2998 colon = system: HCC-2998 colon
# HCT-116 colon = system: HCT-116 colon
# HCT-15 colon = system: HCT-15 colon
# HL-60(TB) leukemia = system: HL-60(TB) leukemia
# HOP-62 NSCLC = system: HOP-62 NSCLC
# HOP-92 NSCLC = system: HOP-92 NSCLC
# HS 578T breast = system: HS 578T breast
# HT29 colon = system: HT29 colon
# IGROV1 ovarian = system: IGROV1 ovarian
# K-562 leukemia = system: K-562 leukemia
# KM12 colon = system: KM12 colon
# LOX IMVI melanoma = system: LOX IMVI melanoma
# M14 melanoma = system: M14 melanoma
# MALME-3M melanoma = system: MALME-3M melanoma
# MCF7 breast = system: MCF7 breast
# MDA-MB-231 breast = system: MDA-MB-231 breast
# MDA-MB-435 = system: MDA-MB-435
# MDA-N = system: MDA-N
# MOLT-4 leukemia = system: MOLT-4 leukemia
# NCI-H23 lung = system: NCI-H23 lung
# NCI-H460 lung = system: NCI-H460 lung
# NCI-H522 lung = system: NCI-H522 lung
# NCI/ADR-RES ovarian = system: NCI/ADR-RES ovarian
# OVCAR-3 ovarian = system: OVCAR-3 ovarian
# OVCAR-4 ovarian = system: OVCAR-4 ovarian
# OVCAR-5 ovarian = system: OVCAR-5 ovarian
# OVCAR-8 ovarian = system: OVCAR-8 ovarian
# PC-3 prostate = system: PC-3 prostate
# RPMI-8226 leukemia = system: RPMI-8226 leukemia
# SF-268 CNS = system: SF-268 CNS
# SF-295 CNS = system: SF-295 CNS
# SF-539 CNS = system: SF-539 CNS
# SK-MEL-2 melanoma = system: SK-MEL-2 melanoma
# SK-MEL-28 melanoma = system: SK-MEL-28 melanoma
# SK-MEL-5 melanoma = system: SK-MEL-5 melanoma
# SK-OV-3 ovarian = system: SK-OV-3 ovarian
# SN12C renal = system: SN12C renal
# SNB-19 CNS = system: SNB-19 CNS
# SNB-75 CNS = system: SNB-75 CNS
# SR leukemia = system: SR leukemia
# SW-620 colon = system: SW-620 colon
# T-47D breast = system: T-47D breast
# TK-10 renal = system: TK-10 renal
# U251 CNS = system: U251 CNS
# UACC-257 melanoma = system: UACC-257 melanoma
# UACC-62 melanoma = system: UACC-62 melanoma
# UO-31 renal = system: UO-31 renal
# RXF 393 renal = system: RXF 393 renal
smiles,measurement,setting,value
N#CN1C2CCC1CC(=O)C2,TGI,786-0 renal,> 100 µM
same,TGI,A498 renal,> 100 µM
same,TGI,A549 NSCLC,> 100 µM
same,TGI,ACHN renal,> 100 µM
same,TGI,BT-549 breast,> 100 µM
same,TGI,CAKI-1 renal,> 100 µM
same,TGI,CCRF-CEM leukemia,> 100 µM
same,TGI,COLO 205 colon,> 100 µM
same,TGI,DU-145 prostate,> 100 µM
same,TGI,EKVX NSCLC,> 100 µM
same,TGI,HCC-2998 colon,> 100 µM
same,TGI,HCT-116 colon,> 100 µM
same,TGI,HCT-15 colon,> 100 µM
same,TGI,HL-60(TB) leukemia,> 100 µM
same,TGI,HOP-62 NSCLC,> 100 µM
same,TGI,HOP-92 NSCLC,> 100 µM
same,TGI,HS 578T breast,> 100 µM
same,TGI,HT29 colon,> 100 µM
same,TGI,IGROV1 ovarian,> 100 µM
same,TGI,K-562 leukemia,> 100 µM
same,TGI,KM12 colon,> 100 µM
same,TGI,LOX IMVI melanoma,> 100 µM
same,TGI,M14 melanoma,> 100 µM
same,TGI,MALME-3M melanoma,> 100 µM
same,TGI,MCF7 breast,> 100 µM
same,TGI,MDA-MB-231 breast,> 100 µM
same,TGI,MDA-MB-435,> 100 µM
same,TGI,MDA-N,> 100 µM
same,TGI,MOLT-4 leukemia,> 100 µM
same,TGI,NCI-H23 lung,> 100 µM
same,TGI,NCI-H460 lung,> 100 µM
same,TGI,NCI-H522 lung,> 100 µM
same,TGI,NCI/ADR-RES ovarian,> 100 µM
same,TGI,OVCAR-3 ovarian,> 100 µM
same,TGI,OVCAR-4 ovarian,> 100 µM
same,TGI,OVCAR-5 ovarian,> 100 µM
same,TGI,OVCAR-8 ovarian,> 100 µM
same,TGI,PC-3 prostate,> 100 µM
same,TGI,RPMI-8226 leukemia,> 100 µM
same,TGI,SF-268 CNS,> 100 µM
same,TGI,SF-295 CNS,> 100 µM
same,TGI,SF-539 CNS,> 100 µM
same,TGI,SK-MEL-2 melanoma,> 100 µM
same,TGI,SK-MEL-28 melanoma,> 100 µM
same,TGI,SK-MEL-5 melanoma,> 100 µM
same,TGI,SK-OV-3 ovarian,> 100 µM
same,TGI,SN12C renal,> 100 µM
same,TGI,SNB-19 CNS,> 100 µM
same,TGI,SNB-75 CNS,> 100 µM
same,TGI,SR leukemia,> 100 µM
same,TGI,SW-620 colon,> 100 µM
same,TGI,T-47D breast,> 100 µM
same,TGI,TK-10 renal,> 100 µM
same,TGI,U251 CNS,> 100 µM
same,TGI,UACC-257 melanoma,> 100 µM
same,TGI,UACC-62 melanoma,> 100 µM
same,TGI,UO-31 renal,> 100 µM
C=CCSC1=N/C(=C\c2ccc(Cl)cc2)C(=O)N1CC=C,TGI,786-0 renal,> 100 µM
same,TGI,A498 renal,52.4 µM
same,TGI,A549 NSCLC,> 100 µM
same,TGI,ACHN renal,> 100 µM
same,TGI,BT-549 breast,76.2 µM
same,TGI,CAKI-1 renal,> 100 µM
same,TGI,CCRF-CEM leukemia,51.8 µM
same,TGI,COLO 205 colon,> 100 µM
same,TGI,DU-145 prostate,> 100 µM
same,TGI,EKVX NSCLC,57.3 µM
same,TGI,HCC-2998 colon,> 100 µM
same,TGI,HCT-116 colon,> 100 µM
same,TGI,HCT-15 colon,> 100 µM
same,TGI,HL-60(TB) leukemia,24.5 µM
same,TGI,HOP-62 NSCLC,> 100 µM
same,TGI,HOP-92 NSCLC,82.2 µM
same,TGI,HS 578T breast,> 100 µM
same,TGI,HT29 colon,> 100 µM
same,TGI,IGROV1 ovarian,> 100 µM
same,TGI,K-562 leukemia,> 100 µM
same,TGI,KM12 colon,97.7 µM
same,TGI,LOX IMVI melanoma,> 100 µM
same,TGI,M14 melanoma,> 100 µM
same,TGI,MCF7 breast,46.2 µM
same,TGI,MDA-MB-231 breast,> 100 µM
same,TGI,MDA-MB-435,> 100 µM
same,TGI,MDA-N,> 100 µM
same,TGI,NCI-H23 lung,> 100 µM
same,TGI,NCI-H460 lung,> 100 µM
same,TGI,NCI-H522 lung,79.9 µM
same,TGI,NCI/ADR-RES ovarian,> 100 µM
same,TGI,OVCAR-3 ovarian,> 100 µM
same,TGI,OVCAR-4 ovarian,94.7 µM
same,TGI,OVCAR-5 ovarian,> 100 µM
same,TGI,OVCAR-8 ovarian,> 100 µM
same,TGI,PC-3 prostate,54.2 µM
same,TGI,RPMI-8226 leukemia,52.9 µM
same,TGI,RXF 393 renal,45.3 µM
same,TGI,SF-268 CNS,> 100 µM
same,TGI,SF-295 CNS,> 100 µM
same,TGI,SF-539 CNS,> 100 µM
same,TGI,SK-MEL-2 melanoma,76 µM
same,TGI,SK-MEL-28 melanoma,> 100 µM
same,TGI,SK-MEL-5 melanoma,31 µM
same,TGI,SK-OV-3 ovarian,> 100 µM
same,TGI,SN12C renal,95.1 µM
same,TGI,SNB-19 CNS,> 100 µM
same,TGI,SR leukemia,48.4 µM
same,TGI,SW-620 colon,> 100 µM
same,TGI,T-47D breast,63.5 µM
same,TGI,TK-10 renal,> 100 µM
same,TGI,U251 CNS,64.6 µM
same,TGI,UACC-257 melanoma,76.7 µM
same,TGI,UACC-62 melanoma,> 100 µM
same,TGI,UO-31 renal,> 100 µM
